Results published in US5763430A, “Method of treating a viral infection by administering a steroid compound” (priority 1995, dated 1998).
≈ marks a conversion by molar mass, not a printed value. Entries after “also recorded” stand apart in the source; their conditions may differ.

Columns and labels:
[1] = tested on: E. coli; assay: antibiotic activity (MIC); type: cell-based; conditions: Escherichia coli; E. coli; read-out: MIC
From the text: (§1) Thus, it is possible to achieve an antimicrobial steroid with or without squalamine-like pharmacological activity.

[2] = tested on: S. aureus; assay: antibiotic activity (MIC); type: cell-based; conditions: Staphylococcus aureus; S. aureus; read-out: MIC
From the text: as §1

[3] = tested on: C. albicans; assay: antibiotic activity (MIC); type: cell-based; conditions: Candida albicans; C. albicans; read-out: MIC
From the text: as §1

[4] = tested on: stage 59-60 Xenopus tadpole; assay: Xenopus tadpole assay; conditions: for tadpole response: 10 μg/ml, about 1 hour; for similarity of pharmacologic activity in tadpole assay: in vivo
[5] = tested on: chick embryo vitelline capillaries; assay: chick embryo vitelline capillary regression assay; type: in vivo; conditions: for relative activity: Table 5
Procedure: Using the chick embryo vitelline capillaries assay, compounds were tested for their ability to induce capillary regression. Each compound was applied in 0.1 ml of 15% Ficol 400 and PBS onto the embryo, and vascular regression was assessed after 60 minutes.
The 3-day chick embryo consists of an embryonic disc from which numerous vessels emerge and return, forming a "FIG. 8"-shaped structure--the embryo in the center with vascular loops extending outward over both poles. […] Following a lag period of around 15 minutes, the constriction of continuity between capillary and secondary vessels, generally on the "venous" side, was observed. Continued pulsatile blood flow progressed, resulting in a "swelling" of the blind tube, followed by a pinching off of the remaining connection and formation of an enclosed vascular sac resembling a "blood island." This process progressed until only the largest vessels remained intact.

[6] = tested on: Human ovarian carcinoma SKOV3; assay: growth inhibition in vitro; type: cell-based; conditions: SKOV3
Procedure: As set forth in Table 7 below, all malignant tumors evaluated in tissue culture, endothelial cells and vascular smooth muscle cells were sensitive to inhibition. Thus, compound 1436 has application in the control of growth factor dependent proliferation of many types of tissue.
Using the assay described above, the anticancer effects of compound 1437 against several cancer lines was assessed.

[7] = effect on fasting blood glucose in mice; type: in vivo, mouse (male CD-1); conditions: i.v.
Procedure: To study the effect of steroid administrator or the NHE responsible for secretion of insulin, several of the aminosterols from shark liver were administered to fasting mice. Male CD-1 mice were assigned to one of four treatment groups. Whole blood glucose was tested using glucometer (Lifescan Glucometer II and One Touch test strips). Statistical analysis was via one-way analysis of variance (ANOVA) followed by subsequent Bonferonni's t-test.

[8] = tested on: L1210 lymphoblastic leukemia cells; assay: mouse model of leukemia; type: in vivo
From the text: C57B mice were inoculated with L1210 lymphoblastic leukemia cells at an inoculum that causes leukemia in 100% of animals.

[9] = tested on: B16 melanoma; assay: suppression of growth of B16 melanoma in C57B mice; type: in vivo, mouse; conditions: subcutaneous, C57B mice, FIG. 6
Procedure: The growth of B16 melanoma in C57B mice is dependent upon neovascularization.
Using the growth of B16 melanoma cells in C57B mice, a recognized model for the evaluation of inhibitors of angiogenesis on the growth of cancers, the effects of subcutaneous, intraperitoneal and oral administration of squalamine were evaluated.
Based on the idea that tumor growth involves both the clonal expansion of a malignant cell along with the development of a supporting vascular supply, a combination of compound 1436 with squalamine was tested to determine whether it would achieve a synergistic effect on solid tumor growth. This concept was evaluated in the B16 melanoma model.
Animals were implanted with B16 melanoma followed by treatment with compound 1436 or 1256 administered in a combined schedule or separately. […] Thus, a combination of these two compounds achieves a therapeutic benefit in tumors dependent on neovascularization that may prevent metastatic spread.

[10] = tested on: human microvascular cells; assay: inhibition of endothelial cell cord formation in vitro; type: cell-based; conditions: for minimal effective concentration: Homo sapiens, Endothelial cell, Table II, read-out: Minimum Effective Concentration, Cord Formation; for effect on endothelial cord formation: key: +: Inhibition of angiogenesis; -: No inhibition of angiogenesis; Toxic; *: cell rounding @ 10 µg/ml
From the text: Endothelial cells have the capacity in vitro to form tubular aggregates resembling capillaries in various early stages of formation. This conversion occurs under relatively specific conditions, in which essential growth factors along with an effective substratum are provided. It has been shown that both the interaction of growth factors with the endothelial cell and its attachment to a substratum activate the NHE. The activation of this exchanger is believed to be required for subsequent morphologic transformation of the endothelial cell into a multicellular tubular structure.
To assess the effect of compounds on the cord-like structures formed by human microvascular cells when plated in the presence of VEGF (Vascular Endothelial Growth Factor) and basic fibroblast growth factor on a collagen matrix, a standard cord formation assay was used.

[11] = tested on: P. aerug; assay: antibiotic activity (MIC); type: cell-based; conditions: P. aerug; read-out: MIC
From the text: as §1

[12] = tested on: NHE; assay: comparison of compound 319 with squalamine through the assays
From the text: Moreover, other aminosterols have shown anti-angiogenic activity. Compounds were subjected to a various assays, including the chick embryo capillary regression assay, the tadpole assay, the assay for inhibition of endothelial cord formation, and the assay for direct inhibition of NHE, as described above, to determine their utilities. As evident from the above data, correlation among the results from the chick, tadpole and in vitro inhibition of endothelial cell cord formation assays is excellent.
Through the application of these assays, compound 319 emerged as an attractive alternative to squalamine. […] Further properties of compound 319 are discussed below.

[13] = effect on arterial resistance in the rat; type: in vivo; conditions: 40 μg noradrenaline, 30 minutes after compound 1436
Procedure: A 200-g rat was catheterized in the right carotid artery, and the compound was introduced over a ten-second period to a total dosage of 5 mg/kg. Within 30 seconds, the mean arterial pressure had fallen from about 100 mm Hg to about 70 mm Hg, with a marked reduction in pulse pressure from about 40 mm to about 10 mm. […] If cardiac output was basically unaffected, reduction in blood pressure would have resulted principally from a reduction in system resistance.
At that time, 40 μg of noradrenaline was introduced.

Structure (SMILES) | MIC [1] [mg/L] | MIC [2] [mg/L] | MIC [3] [mg/L] | effect on endothelial cord formation ([10]; 0.1 μg/ml) | effect on endothelial cord formation ([10]; 1.0 μg/ml) | effect on endothelial cord formation ([10]; 10.0 μg/ml) | MIC [11] [mg/L] | similarity of pharmacologic activity in tadpole assay [4] | also measured
CC(COS(=O)(=O)O)C(=O)CC[C@@H](C)[C@H]1CC[C@H]2[C@@H]3[C@H](O)C[C@H]4C[C@@H](NCCCNCCCCN)CC[C@]4(C)[C@H]3CC[C@]12C (single isomer, unassigned) [Compound 1360] | 128 (≈ 199 µM) | 8 (≈ 12.5 µM) | 32 (≈ 49.8 µM) |  |  |  |  |  | tadpole response [4]: Swelling and lysis of certain erythrocytes occurred, resulting in accumulation of nuclei within certain small vessels of the tail; tadpole response ([4]; listed as compound 1360): extensive vasocclusion occurred within 60 minutes throughout the tail; effect on blood circulating through embryonic vessels ([5]; within 20 minutes): exhibited a brighter red color
CC(C)C(CO)(CC[C@@H](C)[C@H]1CC[C@H]2[C@@H]3[C@H](O)C[C@H]4C[C@@H](NCCCNCCCCN)CC[C@]4(C)[C@H]3CC[C@]12C)OS(=O)(=O)O (single isomer, unassigned) [Compound 1437] |  |  |  |  |  |  |  |  | anticancer activity [6]: exhibit anticancer activity; tadpole response [4]: Epithelium covering the embryonic portions of the animal, such as the tail and antennae, began to slough off in sheets; also recorded: the larval skin was observed to shed off in a sheet; hyperglycemia [7]: caused hyperglycemia in mice
N.N.[Cl][Pt][Cl] [Cisplatin, reference compound] |  |  |  |  |  |  |  |  | hematological profile [8]: profound anemia by day 28
C[C@H](CCC(=O)O)[C@H]1CC[C@H]2[C@@H]3CC[C@H]4C[C@@H](NCCCNCCCCN)CC[C@]4(C)[C@H]3CC[C@]12C [Compound 319] | 32 to 64 (≈ 63.5 to 127 µM) | 64 (≈ 127 µM) | 8 (≈ 15.9 µM) | + | + | + | 32 (≈ 63.5 µM) |  | control of B16 melanoma [9]: achieved control of B16 in C57B mice to an extent almost comparable to squalamine; effect on endothelial cord formation ([10]; 0.01 μg/ml): -; tadpole response [4]: common vascular occlusive effect; CNS effects (specificity) [12]: no CNS effects; potency as an NHE inhibitor vs squalamine [12]: superior to squalamine; relative activity [5]: especially active
COC(=O)CC[C@@H](C)[C@H]1CC[C@H]2[C@@H]3[C@H](O)C[C@@H]4C[C@H](NCCN)CC[C@]4(C)[C@H]3CC[C@]12C [Compound 410] | 16 (≈ 35.7 µM) | 16 (≈ 35.7 µM) | 16 (≈ 35.7 µM) | - | + | + | 32 (≈ 71.3 µM) | functionally similar to compound 1437 | minimal effective concentration [10]: 10 µg/mL
C[C@H](CCC(=O)O)[C@H]1CC[C@H]2[C@@H]3[C@H](O)C[C@@H]4C[C@H](NCCCNCCCCNCCCN)CC[C@]4(C)[C@H]3CC[C@]12C [Compound 412] | 64 (≈ 111 µM) | 8 (≈ 13.9 µM) | 8 (≈ 13.9 µM) | - | - | + | 8 (≈ 13.9 µM) | pharmacologic activity similar to that seen for FX 3 | minimal effective concentration [10]: > 10 µg/mL
C[C@H](CCC(=O)O)[C@H]1CC[C@H]2[C@@H]3[C@H](O)C[C@@H]4C[C@@H](NCCCNCCCCNCCCN)CC[C@]4(C)[C@H]3CC[C@]12C [Compound 413] | 256 (≈ 444 µM) | 8 (≈ 13.9 µM) | 32 (≈ 55.5 µM) | - | - | + | 64 (≈ 111 µM) | effects like those produced by compound 1436 | minimal effective concentration [10]: > 10 µg/mL
C[C@H](CCC(=O)O)[C@H]1CC[C@H]2[C@@H]3[C@H](O)C[C@@H]4C[C@@H](NCCN)CC[C@]4(C)[C@H]3CC[C@]12C [Compound 415] | 128 (≈ 294 µM) | 128 (≈ 294 µM) | 256 (≈ 589 µM) | - | - | +/T | 256 (≈ 589 µM) |  | minimal effective concentration [10]: > 10 µg/mL; relative activity [5]: especially active
COC(=O)CC[C@@H](C)[C@H]1CC[C@H]2[C@@H]3C[C@@H](O)[C@H]4C[C@@H](NCCN)CC[C@]4(C)[C@H]3CC[C@]12C [Compound 432] | 8 to 16 (≈ 17.8 to 35.7 µM) | 1 (≈ 2.23 µM) | 2 to 4 (≈ 4.46 to 8.91 µM) |  | - | - | 64 (≈ 143 µM) | functionally similar to compound 1437 | 
C[C@H](CCC(=O)O)[C@H]1CC[C@H]2[C@@H]3C[C@@H](O)[C@H]4C[C@@H](NCCN)CC[C@]4(C)[C@H]3CC[C@]12C [Compound 433] | > 256 | > 256 | > 256 |  |  |  | 128 (≈ 294 µM) | functionally similar to compound 1437 | 
COC(=O)CC[C@@H](C)[C@H]1CC[C@H]2[C@@H]3CC[C@H]4C[C@H](NCCCNCCCCNCCCN)CC[C@]4(C)[C@H]3CC[C@]12C [Compound 458] | 32 (≈ 55.7 µM) | 4 (≈ 6.96 µM) | 2 (≈ 3.48 µM) |  |  |  | 64 (≈ 111 µM) | pharmacologic activity similar to that seen for FX 3 | 
COC(=O)CC[C@@H](C)[C@H]1CC[C@H]2[C@@H]3CC[C@H]4C[C@@H](NCCCNCCCCNCCCN)CC[C@]4(C)[C@H]3CC[C@]12C [Compound 459] | 32 (≈ 55.7 µM) | 1 to 2 (≈ 1.74 to 3.48 µM) | 2 (≈ 3.48 µM) |  |  |  | 64 (≈ 111 µM) | pharmacologic activity similar to that seen for FX 3 | 
COC(=O)CC[C@@H](C)[C@H]1CC[C@H]2[C@@H]3C[C@@H](O)[C@H]4C[C@H](NCCCNCCCCNCCCN)CC[C@]4(C)[C@H]3CC[C@]12C [Compound 465] | 32 (≈ 54.2 µM) | 2 to 4 (≈ 3.38 to 6.77 µM) | 4 (≈ 6.77 µM) |  |  |  | 128 (≈ 217 µM) | pharmacologic activity similar to that seen for FX 3 | 
COC(=O)CC[C@@H](C)[C@H]1CC[C@H]2[C@@H]3C[C@@H](O)[C@H]4C[C@@H](NCCCNCCCCNCCCN)CC[C@]4(C)[C@H]3CC[C@]12C [Compound 466] | 32 (≈ 54.2 µM) | 2 (≈ 3.38 µM) | 2 (≈ 3.38 µM) |  |  |  | 32 (≈ 54.2 µM) | pharmacologic activity similar to that seen for FX 3 | 
CC(C)CCC[C@@H](C)[C@H]1CC[C@H]2[C@@H]3[C@H](O)C[C@H]4C[C@H](N)CC[C@]4(C)[C@H]3CC[C@]12C [Compound 1363] | > 256 | 2 (≈ 4.95 µM) | 2 (≈ 4.95 µM) |  |  |  | > 256 | potencies comparable to that of Fraction 1 | 
NC[C@H](O)c1ccc(O)c(O)c1 [noradrenaline, reference compound] |  |  |  |  |  |  |  |  | blood pressure after noradrenaline [13]: An almost immediate increase in blood pressure
